In patent US20040115801A1, “Model epithelial cell cultures” (KINETANA GROUP INC., priority 2002, published 2004):
Like-named read-outs stand apart in the source and are kept apart here. Each block holds one compound with its values, some of them ahead of it.

Experiments:
SCBN cells [1] = test: Microvilli structure of SCBN cells by SEM; type: cell-based, human; settings: SEM 48 hours after medium change; for length of microvilli: 5 μM Ro31-8220 and/or 5 mM sodium butyrate in base medium
Description: (§1) To assay the structure of microvilli and to measure TEER, SCBN cells were cultured with DMEM media supplemented with FBS and collected at 24 hours post confluence. Harvested cells were seeded at the density of 1E5 cells/well in Falcon multiple insert plates (0.31 cm2/well). […] Forty-eight hours after medium change, SCBN cells were processed for SEM examination following conventional SEM sample preparation. Assessments of microvilli structure were made from SEM images.

SCBN cells [2] = test: Enzyme expression in SCBN cell lysate; type: cell-based, human; settings: 5 μM Ro 31-8220 alone
Description: FIG. 2: illustrates the expression of enzymes in SCBN cells cultured under culture conditions of the invention. Enzyme activity is expressed as milliunit per mg of protein. One unit equals the digestion of one μmole of substrate per minute at 37° C. AP: Alkaline phosphatase; DPP: dipeptidylpeptidase-IV; APN: aminopeptidase N; APA: aminopeptidase A.
To assay patterns of enzyme expression, SCBN cells were cultured with DMEM media supplemented with FBS and collected at 24 hours post confluence. SCBN cells were seeded with DMEM supplemented with FBS at 1E5 cells/well in non-coated and rat-tail collagen-coated Falcon multiple insert plate. Twenty-four hours after seeding media were change with DMEM supplemented with FBS with DMEM supplemented with FBS in non-coated inert wells whereas the media in rat-tail collagen-coated wells were changed with Kinetana base media supplemented with 5 μM of Ro31-8220 and 5 mM of sodium butyrate. Forty-eight hours after medium change, SCBN cells were lysed with ⅕ strength of Tris buffered saline on ice and the whole cell lysate was assayed for enzyme activity by incubating the cell lysate with specific substrate for 60 minutes at 37° C. […]

SCBN cells [3] = test: TEER of SCBN cell layers in different culture conditions; type: cell-based, human; settings: SCBN cells on rat-tail collagen, supplemented base medium; day 3 (48 hours after medium change)
Description: FIG. 1: illustrates the TEER values of SCBN cells in different culture conditions. TEER measurement was conducted by using EVOM voltmeter from World Precision Instrument.
TEER values may be assayed using any conventional equipment capable of measuring electrical resistance, such as […] from World Precision Instruments.
as §1

[4] = tested on: cell layer of the invention; test: Ginkgo extract ingredient profiles, apical vs basal side of the cell layer; type: in vitro ADME, human
Description: FIG. 8. Representative chromatogram of intact flavonol glycosides determined in fluid from the apical side of the cell layer 60 minutes after application of standardized ginkgo extract (equivalent of 10 mg extract).
FIG. 9. Representative chromatogram of intact flavonol glycosides determined in fluid from the basal side of the cell layer 60 minutes after application of standardized ginkgo extract (equivalent of 10 mg extract).
FIG. 10. Representative chromatogram of ginkgolides determined in fluid from the apical side of the cell membrane 60 minutes after application of standardized ginkgo extract (equivalent of 20 mg extract).
FIG. 11. Representative chromatogram of ginkgolides determined in fluid from the basal side of the cell layer 60 minutes after application of standardized ginkgo extract (equivalent of 400 mg extract).
In some embodiments, compositions for processing in accordance with the methods of the invention may include natural substances, such as crude extracts or formulations from natural products such as plants, which may be dissolved or suspended in an aqueous solution, such as a pH buffered solution or an artificial intestinal fluid. In alternative embodiments, a sample of these substances may be treated with artificial gastric juices to test prior to processing with the cell layers of the invention, for example to test for potential decomposition of ingredients under acidic conditions. In some embodiments, a known concentration of the solution or composition for processing, in either buffered solution or artificial intestinal fluid, may be applied to the apical or first side of the cell layer (membrane). Subsequently, one or more samples may be collected from the basal or second side of the cell layer, which may for example contain a cell culture medium or human plasma or components of human plasma such as albumin. In alternative embodiments, samples may be taken from the apical and basal sides for ingredient identification and/or quantification. Common analytical approaches such as high performance liquid chromatography (HPLC), mass spectrometry (MS), gas chromatography (GC), LC/MS, or GC/MS may then be used for the identification or quantification of the components present in the physiologically modified composition.
Although the invention may be used to conduct permeability screening in a manner similar to how Caco-2 the industry standard is used, it has a unique and novel application in identifying absorbable active ingredients in natural health products (or natural products or nutraceuticals or botanicals or herbals or dietary supplements) or any products that contain mixtures of ingredients of interest (as marker substances or active ingredients) or botanicals. The idea is as follows. Similar to pharmaceutical development, components are not considered active unless they are absorbed into the blood stream. A number of methods have been developed to measure the activities of botanical extracts; very few have measured the active components, let alone absorbable components that are active. It has been shown time and again that marker components that have in vitro activities are not absorbed. The active ingredient profile determined using in vitro methods is usually erroneous; this is particularly true for the proportion of the ingredients required because the absorption of individual components is potentially different. A good example is the determination of the ingredient profiles of Ginkgo biloba. People think that the ratios of the ingredients in the herb are important (See FIGS. 8, 10, Tables 3, 4, apical side ratios). But it is only the absorbed ingredients that can have activity and not all ingredients are absorbed or absorbed at the same rate. Therefore, the profiles of absorbed ingredients will differ from the profiles of ingredients in the product, and it is the absorbed ingredient profiles that are biologically most relevant. […]

[5] = tested on: Kinetana cells using the Buret growth condition; test: Permeability in Kinetana cells using the Buret growth condition; type: in vitro ADME, human
Excerpt: The proprietary growth conditions result in a different paracellular diffusion performance of the Kinetana cell line compared with CaCo-2 and T-84 human colon cancer cell lines (He, Murby et al. 1998) and also SCBN with the Buret condition. The proprietary condition correlates better with human paracellular marker permeability, and this appears to relate to the differences in tight junction pore size between the new method and the others. The evidence for these claims is as follows.
(§2) The bioavailability of PEG 900 is reported to be 10% (Yee 1997).

Caco-2 = test: Permeability across CaCo-2 monolayers; type: in vitro ADME, human
Excerpt: (§3) (He, Murby et al. 1998) relate the permeability profile of PEG oligomers to tight junction pore size. Their data in CaCo-2 correspond very closely to Kinetana's data with Caco-2, in that there is a steep drop-off in permeability between molecular weights 200 and 450, then a leveling off. The invention permeability, in contrast, declines slowly and continuously from MW 200 to over 1,000 Da (FIG. 3).
as §2

[6] = Yee 1997; cited from earlier work
[7] = tested on: monolayers of the invention (Kinetana cell line); test: Permeability across monolayers of the invention; type: in vitro ADME, human
Excerpt: as §3, §2

[8] = apical side (pre-absorption), six commercial ginkgo extract samples
[9] = basal side (absorbed ingredients), six commercial ginkgo extract samples

Compound: Cn1cc(C2=C(c3cn(CCCSC(=N)N)c4ccccc34)C(=O)NC2=O)c2ccccc21 [Ro31-8220, 2-{1-[3-(amidinothio)propyl]-1H-indol-3-yl}-3-(1-meethylindol-3-yl)-maleimide methanesulfonate]
length of microvilli (SCBN cells [1]): did not measurably increase | percentage of cells with long microvilli (SCBN cells [1]; compared with base medium): did not measurably increase | expression of alkaline phosphatase activity (SCBN cells [2]): up-regulate | TEER value (SCBN cells [3]): about 680 ohm.cm^2

Compound: Ginkgolide C
Ginkgo terpene lactone components ratio to Ginkgolide A, Apical side Mean [4, 8]: 0.32 | Ginkgo terpene lactone components ratio to Ginkgolide A, Basal side Mean [4, 9]: 0.20

Compound: CCCC(=O)[O-].[Na+] [sodium butyrate]
length of microvilli (SCBN cells [1]): < 0.1 um | TEER value (SCBN cells [3]): about 175 ohm.cm^2

Ginkgo intact flavone components ratio to Rutin, Apical Mean [4, 8]: 1.00 | Ginkgo intact flavone components ratio to Rutin, basal Mean [4, 9]: 1.00
Compound: C[C@@H]1O[C@@H](OC[C@H]2O[C@@H](Oc3c(-c4ccc(O)c(O)c4)oc4cc(O)cc(O)c4c3=O)[C@H](O)[C@@H](O)[C@@H]2O)[C@H](O)[C@H](O)[C@H]1O [Rutin]

permeability [5]: too low to be measured | permeability (Caco-2): too low to be measured | permeability ([7]; conditions of the invention): ~1 ×10⁻⁶ cm/s | predicted human bioavailability ([7]; predicted from permeability under conditions of the invention): around 12%
Compound: PEG 900
bioavailability (reported) [6]: 10%

Ginkgo terpene lactone components ratio to Ginkgolide A, Apical side Mean [4, 8]: 0.20 | Ginkgo terpene lactone components ratio to Ginkgolide A, Basal side Mean [4, 9]: 0.12
Compound: CC1C(=O)OC2C(O)C34C5CC(C(C)(C)C)C36C(OC(=O)C6O)OC4(C(=O)O5)C12O (centres unmarked) [Ginkgolide B]

Ginkgo terpene lactone components ratio to Ginkgolide A, Apical side Mean [4]: 0.86 | Ginkgo terpene lactone components ratio to Ginkgolide A, Basal side Mean [4]: 0.55
Compound: Ginkgolide J

Compound: CC(C)(C)[C@]1(O)CC2OC(=O)CC23C(=O)OC2OC(=O)[C@H](O)C231 (some centres unmarked) [Bilobalide]
Ginkgo terpene lactone components ratio to Ginkgolide A, Apical side Mean [4, 8]: 0.66 | Ginkgo terpene lactone components ratio to Ginkgolide A, Basal side Mean [4, 9]: 0.44

Compound: C[C@@H]1C(=O)O[C@H]2C[C@@]34[C@H]5C[C@@H](C(C)(C)C)[C@]36[C@@H](OC(=O)[C@@H]6O)O[C@@]4(C(=O)O5)[C@]21O [Ginkgolide A]
Ginkgo terpene lactone components ratio to Ginkgolide A, Apical side Mean [4, 8]: 1.00 | Ginkgo terpene lactone components ratio to Ginkgolide A, Basal side Mean [4, 9]: 1.00
